Measurements reported in ChEMBL document CHEMBL1201862, “PubChem BioAssay data set” (2004).
The source made the active and inactive calls.

What was measured:
[1] = molecular target: Melanin-concentrating hormone receptor 1 (Homo sapiens, UniProt Q99705); experiment: Late-stage fluorescence-based counterscreen for antagonists of the G-protein coupled receptor 7 (GPR7): cell-based dose response assay to identify antagonists of the melanin-concentrating hormone receptor 1 (MCHR1) Set 6.; assay type: functional
[2] = molecular target: T1, Neuropeptides B/W receptor type 1 (Homo sapiens, UniProt P48145); experiment: human NPBW1 receptor blockade, IC50 – cell-based, fluorescence, dose response, set 6, late-stage follow-up (AID 588583); assay type: functional
T1 sequence (P48145 whole entry): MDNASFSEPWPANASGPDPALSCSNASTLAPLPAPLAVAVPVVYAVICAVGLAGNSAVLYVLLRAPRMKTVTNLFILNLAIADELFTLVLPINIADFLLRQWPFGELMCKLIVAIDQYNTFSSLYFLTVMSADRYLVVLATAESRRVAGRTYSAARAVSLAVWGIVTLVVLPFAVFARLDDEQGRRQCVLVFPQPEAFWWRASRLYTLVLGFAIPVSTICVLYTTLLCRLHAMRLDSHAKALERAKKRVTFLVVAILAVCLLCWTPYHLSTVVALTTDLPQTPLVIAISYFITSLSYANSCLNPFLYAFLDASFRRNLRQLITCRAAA

[3] = molecular target: T2, Apoptotic protease-activating factor 1 (Homo sapiens, UniProt O14727); experiment: SAR analysis of small molecule Activators of Apaf-1 in a Fluorescent assay.; assay type: functional; conditions: read-out: EC50_Mean;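 also: caspase-3 cleavage of fluorogenic Rh110 DEVD substrate downstream of apoptosome activation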
T2 sequence (O14727 whole entry): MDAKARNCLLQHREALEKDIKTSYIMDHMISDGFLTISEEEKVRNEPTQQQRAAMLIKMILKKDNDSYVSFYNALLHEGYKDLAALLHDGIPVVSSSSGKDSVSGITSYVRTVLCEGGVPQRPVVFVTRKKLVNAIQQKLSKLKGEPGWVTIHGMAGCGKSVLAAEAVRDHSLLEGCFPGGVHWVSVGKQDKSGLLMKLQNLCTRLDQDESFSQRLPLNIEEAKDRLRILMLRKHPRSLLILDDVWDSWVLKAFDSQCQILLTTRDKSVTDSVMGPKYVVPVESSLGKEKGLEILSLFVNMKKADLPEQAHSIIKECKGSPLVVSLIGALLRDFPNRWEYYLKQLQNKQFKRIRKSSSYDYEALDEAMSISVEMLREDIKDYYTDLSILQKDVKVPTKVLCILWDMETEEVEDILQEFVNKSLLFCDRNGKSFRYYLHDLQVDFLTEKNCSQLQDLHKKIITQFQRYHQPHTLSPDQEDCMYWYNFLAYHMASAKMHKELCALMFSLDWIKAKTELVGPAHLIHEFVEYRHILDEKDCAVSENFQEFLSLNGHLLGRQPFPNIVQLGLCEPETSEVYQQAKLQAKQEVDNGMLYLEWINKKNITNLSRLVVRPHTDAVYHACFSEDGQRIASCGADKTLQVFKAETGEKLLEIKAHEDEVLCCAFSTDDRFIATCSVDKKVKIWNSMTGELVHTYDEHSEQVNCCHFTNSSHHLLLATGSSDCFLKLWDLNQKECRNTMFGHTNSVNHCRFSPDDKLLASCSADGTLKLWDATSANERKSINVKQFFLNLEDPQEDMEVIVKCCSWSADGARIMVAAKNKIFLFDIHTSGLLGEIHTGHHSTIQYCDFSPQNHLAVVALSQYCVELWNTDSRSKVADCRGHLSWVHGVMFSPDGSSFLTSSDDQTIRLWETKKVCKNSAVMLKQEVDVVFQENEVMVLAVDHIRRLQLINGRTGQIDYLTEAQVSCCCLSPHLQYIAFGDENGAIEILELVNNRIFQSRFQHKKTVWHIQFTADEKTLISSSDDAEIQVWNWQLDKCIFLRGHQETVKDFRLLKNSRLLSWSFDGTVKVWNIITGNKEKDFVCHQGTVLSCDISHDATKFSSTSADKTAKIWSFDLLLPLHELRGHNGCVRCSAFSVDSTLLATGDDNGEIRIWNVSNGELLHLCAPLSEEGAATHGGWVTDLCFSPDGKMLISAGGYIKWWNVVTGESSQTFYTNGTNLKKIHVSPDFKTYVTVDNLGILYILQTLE

[4] = molecular target: Adenosylmethionine-8-amino-7-oxononanoate aminotransferase (Mycobacterium tuberculosis, UniProt P9WQ81); experiment: Mycobacterium tuberculosis BioA enzyme inhibitor Measured in Biochemical System Using Plate Reader - 2163-02_Inhibitor_Dose_CherryPick_Activity.; assay type: functional, Mycobacterium tuberculosis UT205
[5] = molecular target: T3, Diacylglycerol lipase-beta (Mus musculus, UniProt Q91WC9); experiment: Late stage assay provider results from the probe development effort to identify inhibitors of diacylglycerol lipase, beta (DAGLb): LCMS-based biochemical dose response assay.; assay type: functional
[6] = molecular target: T3, Diacylglycerol lipase-beta; experiment: Late stage assay provider results from the probe development effort to identify inhibitors of diacylglycerol lipase, beta (DAGLb): fluorescence-based dose-response biochemical gel-based competitive Activity-Based Protein Profiling (ABPP) inhibition of DAGLb in vitro.; assay type: functional

T3 sequence (Q91WC9 whole entry): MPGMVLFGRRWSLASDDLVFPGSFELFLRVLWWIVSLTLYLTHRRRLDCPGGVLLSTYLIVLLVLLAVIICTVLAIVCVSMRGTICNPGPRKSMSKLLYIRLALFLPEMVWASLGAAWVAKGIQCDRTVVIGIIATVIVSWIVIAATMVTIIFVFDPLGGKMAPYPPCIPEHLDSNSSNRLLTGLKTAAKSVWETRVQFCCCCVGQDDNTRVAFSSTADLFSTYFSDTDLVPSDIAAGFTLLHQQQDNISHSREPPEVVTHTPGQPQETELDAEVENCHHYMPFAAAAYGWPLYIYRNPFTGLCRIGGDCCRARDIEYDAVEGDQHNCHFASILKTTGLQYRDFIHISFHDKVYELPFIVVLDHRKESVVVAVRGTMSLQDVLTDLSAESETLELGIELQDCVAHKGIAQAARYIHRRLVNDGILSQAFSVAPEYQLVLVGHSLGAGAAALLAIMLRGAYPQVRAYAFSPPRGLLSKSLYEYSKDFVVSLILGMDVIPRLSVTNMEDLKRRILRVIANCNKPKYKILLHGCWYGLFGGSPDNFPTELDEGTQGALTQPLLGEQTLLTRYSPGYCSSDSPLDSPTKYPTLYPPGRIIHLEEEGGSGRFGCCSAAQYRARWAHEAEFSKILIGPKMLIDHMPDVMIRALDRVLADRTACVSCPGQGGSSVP
Chain of Adenosylmethionine-8-amino-7-oxononanoate aminotransferase (P9WQ81 whole entry): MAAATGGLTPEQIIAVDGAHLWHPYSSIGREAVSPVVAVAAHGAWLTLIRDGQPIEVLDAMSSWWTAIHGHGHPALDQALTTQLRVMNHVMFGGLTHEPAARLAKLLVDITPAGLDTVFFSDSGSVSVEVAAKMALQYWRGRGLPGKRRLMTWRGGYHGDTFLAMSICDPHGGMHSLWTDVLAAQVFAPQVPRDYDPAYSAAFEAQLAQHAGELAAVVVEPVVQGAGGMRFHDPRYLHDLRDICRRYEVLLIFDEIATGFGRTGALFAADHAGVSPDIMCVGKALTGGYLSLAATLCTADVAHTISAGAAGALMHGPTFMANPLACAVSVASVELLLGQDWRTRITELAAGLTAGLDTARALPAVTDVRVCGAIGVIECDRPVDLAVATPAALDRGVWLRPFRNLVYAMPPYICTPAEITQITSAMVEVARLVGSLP
Chain of Melanin-concentrating hormone receptor 1 (Q99705 whole entry): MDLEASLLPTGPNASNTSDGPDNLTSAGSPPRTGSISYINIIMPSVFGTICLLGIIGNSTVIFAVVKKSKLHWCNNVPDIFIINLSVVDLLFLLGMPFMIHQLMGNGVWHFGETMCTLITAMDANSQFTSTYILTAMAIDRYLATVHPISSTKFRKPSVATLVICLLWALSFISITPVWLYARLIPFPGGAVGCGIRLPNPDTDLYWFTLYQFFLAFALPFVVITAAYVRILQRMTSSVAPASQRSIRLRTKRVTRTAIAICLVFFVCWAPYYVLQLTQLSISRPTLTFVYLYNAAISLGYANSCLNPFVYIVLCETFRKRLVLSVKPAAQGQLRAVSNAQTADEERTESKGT

With `O=c1c(-c2ccccc2)c(Br)cnn1Cc1cccc2ccccc12` the IC50 [1] was 12 µM (inactive) and the IC50 [2] was 12 µM (inactive).
In the case of `O=C(O)CC(CCc1ccccc1)NC(=O)c1cccs1` (stereo unspecified), the EC50 [3] is reported as > 100 µM (inactive).
In the case of `O=C(N[C@H]1CC[C@@H](CCn2cc(-c3cccnc3)nn2)O[C@H]1CO)c1ccccc1F`, the AC50 [4] is reported as 12.3 µM (active).
With `O=C(N1CCCCC1Cc1ccccc1)n1cc(-c2ccc(-c3ccccc3)cc2)nn1` (stereo unspecified) the IC50 [5] was 0.1 µM (active) and the IC50 [6] was 0.043 µM (active).
